These results are taken from patent US11124519B2, “Cocrystal forms of ((1S,2S,4R)-4-{4-[(1S)-2,3-dihydro-1H-inden-1-ylamino]-7H-pyrrolo [2,3-d]pyrimidin-7-yl}-2-hydroxycyclopentyl) methyl sulfamate, formulations and uses thereof” (Millennium Pharmaceuticals, Inc., priority 2017, dated 2021).

“Also recorded” adds a separate entry of the source. Structures can show the parent of a compound that is named as a salt. Where two headings read alike, the source gives them in different places. Marks after values point to notes of the source that are not given here. Bounds are passed on as bounds.

One series is described as follows: physchem. The conditions noted are these: water, thermodynamic from solid.
Series [1] is described as follows: Physical stability on exposure to elevated relative humidity (deliquescence). The conditions noted are these: RT. It is filed as physicochemical. An excerpt:
Each cocrystal was also exposed to elevated relative humidity (first ˜75% RH, then ˜97% RH) for specified time periods (Table 20).

Series [2] is described as follows: Chemical stability under temperature/humidity stress, HPLC purity at t=0 and t=14 days. The conditions noted are these: for Purity after 60° C./75% RH, 2 weeks / Purity after 60° C./ambient RH, 2 weeks: HPLC; for Chemical stability under the stressed conditions (in words): 60° C./ambient RH and 60° C./75% RH; for Purity after 60° C./75% RH, 2 weeks / Chemical stability under the stressed conditions (in words) / Purity after 60° C./ambient RH, 2 weeks: 2 weeks; for Purity T = 0: unstressed, t=0, HPLC.
Method: (§1) High Performance Liquid Chromatography (HPLC): HPLC analyses were performed using an Agilent 1100 series liquid chromatograph equipped with a variable wavelength detector and binary pump for sequence file 552094, and a diode array detector and quaternary pump for the remaining sequences. […] Degasser and an autosampler (set to ˜5° C.) were equipped for all sequences. The chromatographic column was a 150×4.6 mm Aquasil C18 column with 3 μm packing (Thermo Scientific). The column temperature was set to 40° C., and the detector wavelength was 280 nm with a bandwidth of 8 nm. The injection volume was 15 μL. Mobile phase A was 0.1% TFA in Water, and mobile phase B was 0.1% TFA in Acetonitrile. The flow rate used was 0.5 L/minute. Mobile phases were filtered and degassed through a 0.45 μm nylon filter under vacuum prior to use, except for Mobile phase A used in sequence file 554410 due to time constraints.
(§2) The physical and chemical stability of the glycolic acid, hippuric acid, malonic acid, and saccharin cocrystals were evaluated at two stress conditions (60° C./ambient relative humidity and 60° C./75% relative humidity) and compared to MLN4924 HCl salt.
(§3) Chemical stability was assessed via HPLC analysis of samples at t=0 and t=14 days.

Series [3] is described as follows: Aqueous solubility estimate in water by solvent addition method. The conditions noted are these: for Solubility Estimate: solvent addition method, visual assessment, rounded to nearest whole number.
For series [4] the following is noted: 2 weeks.
Method: as §1, §2, §3
Series [5] is described as follows: Physical stability under temperature/humidity stress, XRPD comparison of unstressed and stressed samples. The class given is physicochemical. The following applies: 60° C./75% RH, 2 weeks; listed as MLN4924-HCl. As for the experimental part: Physical stability was assessed by comparison of XRPD patterns of the unstressed and stressed samples.
The conditions of series [6]: cited from earlier work.
Where [7] appears, read: listed as Glycolic acid (Form A).
[8] abbreviates: listed as Hippuric acid (Form B).
Where [9] appears, read: listed as Malonic acid (Form M).

For the compound `NS(=O)(=O)OC[C@@H]1C[C@@H](n2ccc3c(N[C@H]4CCc5ccccc54)ncnc32)C[C@@H]1O` [Form H, ((1S,2S,4R)-4-{4-[(1S)-2,3-dihydro-1H-inden-1-ylamino]-7H-pyrrolo[2,3-d]pyrimidin-7-yl}-2-hydroxycyclopentyl)methyl sulfamate], in the series “physchem”, the solubility (in general, the dissolved amount per volume that the medium holds) was below 1000 µg/mL. Moreover, the “Observations After Stress” value in series [1] (~75% RH stress, ~3 days) is listed as “Free flowing solids”; in series [1] (~97% RH stress, ~2 days) it was “Free flowing solids”.

For the compound `NS(=O)(=O)OC[C@@H]1C[C@@H](n2ccc3c(N[C@H]4CCc5ccccc54)ncnc32)C[C@@H]1O` [Form J, ((1S,2S,4R)-4-{4-[(1S)-2,3-dihydro-1H-inden-1-ylamino]-7H-pyrrolo[2,3-d]pyrimidin-7-yl}-2-hydroxycyclopentyl)methyl sulfamate], the “Observations After Stress” value in series [1] (~75% RH stress, ~3 days) is recorded as “Free flowing solids”; in series [1] (~97% RH stress, ~2 days), “Free flowing solids”.

As to `NS(=O)(=O)OC[C@@H]1C[C@@H](n2ccc3c(N[C@H]4CCc5ccccc54)ncnc32)C[C@@H]1O` [Form A, ((1S,2S,4R)-4-{4-[(1S)-2,3-dihydro-1H-inden-1-ylamino]-7H-pyrrolo[2,3-d]pyrimidin-7-yl}-2-hydroxycyclopentyl)methyl sulfamate], in series [2] (setting [7]), the “Purity after 60° C./75% RH, 2 weeks” value was determined as 93.0%; the “Purity after 60° C./ambient RH, 2 weeks” value was determined as 95.9%; the “Purity T = 0” value came to 96.9%. In addition, in series [2] (listed as glycolic acid cocrystal), the “Chemical stability under the stressed conditions (in words)” value (shortened to “Chemical stability … (in words)”) was “limited stability”. For the same compound, the “Solubility Estimate” value in series [3] is <1^c mg/mL. The “Observations After Stress” value in series [1] (~75% RH stress, ~3 days) is on record as “Free flowing solids”. In series [1] (~97% RH stress, ~2 days), the “Observations After Stress” value is “Free flowing solids”.

In the case of `NS(=O)(=O)OC[C@@H]1C[C@@H](n2ccc3c(N[C@H]4CCc5ccccc54)ncnc32)C[C@@H]1O` [Form L, ((1S,2S,4R)-4-{4-[(1S)-2,3-dihydro-1H-inden-1-ylamino]-7H-pyrrolo[2,3-d]pyrimidin-7-yl}-2-hydroxycyclopentyl)methyl sulfamate], the “Observations After Stress” value is listed as “Free flowing solids” in series [1] (~75% RH stress, ~4 days) and “Free flowing solids” in series [1] (~97% RH stress, ~1 day).

`NS(=O)(=O)OC[C@@H]1C[C@@H](n2ccc3c(N[C@H]4CCc5ccccc54)ncnc32)C[C@@H]1O` [Form F, ((1S,2S,4R)-4-{4-[(1S)-2,3-dihydro-1H-inden-1-ylamino]-7H-pyrrolo[2,3-d]pyrimidin-7-yl}-2-hydroxycyclopentyl)methyl sulfamate]: in series [2] (listed as Saccharin (Form F)), the “Purity after 60° C./75% RH, 2 weeks” value is given as 91.0%; the “Purity after 60° C./ambient RH, 2 weeks” value came out at 91.2%; the “Purity T = 0” value is 91.2%. Also, in series [2] (listed as saccharin cocrystal), the “Purity T = 0” value is reported as “about 91%”. In addition, the “Chemical stability … (in words)” value in series [4] is listed as “improvement in stability over the current MLN4924 HCl form”. The “Observations After Stress” value in series [1] (~75% RH stress, ~3 days) is on record as “Free flowing solids”. In addition, the “Observations After Stress” value in series [1] (~97% RH stress, ~2 days) is reported as “Free flowing solids”.

For `NS(=O)(=O)OC[C@@H]1C[C@@H](n2ccc3c(N[C@H]4CCc5ccccc54)ncnc32)C[C@@H]1O` [Form B, ((1S,2S,4R)-4-{4-[(1S)-2,3-dihydro-1H-inden-1-ylamino]-7H-pyrrolo[2,3-d]pyrimidin-7-yl}-2-hydroxycyclopentyl)methyl sulfamate], in series [2] (setting [8]), the “Purity after 60° C./75% RH, 2 weeks” value is listed as 93.9%; the “Purity after 60° C./ambient RH, 2 weeks” value turned out to be 94.1%; the “Purity T = 0” value came out at 94.4%. In addition, the “Chemical stability … (in words)” value in series [2] (listed as hippuric acid cocrystal) is given as “little decomposition; also recorded: improvement in stability over the current MLN4924 HCl form”. Besides, the “Solubility Estimate” value in series [3] is on record as below 1 mg/mL. Besides, the “Observations After Stress” value in series [1] (~75% RH stress, ~3 days) was “Free flowing solids”. Also, the “Observations After Stress” value in series [1] (~97% RH stress, ~2 days) is on record as “Free flowing solids”.

Take `NS(=O)(=O)OC[C@@H]1C[C@@H](n2ccc3c(N[C@H]4CCc5ccccc54)ncnc32)C[C@@H]1O` [Form N, ((1S,2S,4R)-4-{4-[(1S)-2,3-dihydro-1H-inden-1-ylamino]-7H-pyrrolo[2,3-d]pyrimidin-7-yl}-2-hydroxycyclopentyl)methyl sulfamate]: the “Solubility Estimate” value in series [3] is reported as <1^c mg/mL. In addition, the “Observations After Stress” value in series [1] (~75% RH stress, ~4 days) is given as “Free flowing solids”; in series [1] (~97% RH stress, ~1 day), “Free flowing solids”.

For `NS(=O)(=O)OC[C@@H]1C[C@@H](n2ccc3c(N[C@H]4CCc5ccccc54)ncnc32)C[C@@H]1O` [Form G, ((1S,2S,4R)-4-{4-[(1S)-2,3-dihydro-1H-inden-1-ylamino]-7H-pyrrolo[2,3-d]pyrimidin-7-yl}-2-hydroxycyclopentyl)methyl sulfamate], the “Observations After Stress” value in series [1] (~75% RH stress, ~3 days) is on record as “Free flowing solids”; in series [1] (~97% RH stress, ~2 days) it was “Slightly tacky solids”; in series [1] (~97% RH stress, ~2 days, listed as solvated piperazine cocrystal), “slightly tacky”.

Consider `NS(=O)(=O)OC[C@@H]1C[C@@H](n2ccc3c(N[C@H]4CCc5ccccc54)ncnc32)C[C@@H]1O` [HCl, ((1S,2S,4R)-4-{4-[(1S)-2,3-dihydro-1H-inden-1-ylamino]-7H-pyrrolo[2,3-d]pyrimidin-7-yl}-2-hydroxycyclopentyl)methyl sulfamate, reference compound], for which, in series [2], the “Purity after 60° C./75% RH, 2 weeks” value is given as 96.6%; the “Purity after 60° C./ambient RH, 2 weeks” value is on record as 94.6%; the “Purity T = 0” value is 98.2%. In series [2] (listed as MLN4924-HCl), the “Chemical stability … (in words)” value was “limited stability”. In addition, in series [5], the “Form change (XRPD)” value is listed as “new unique crystalline XRPD pattern”. The “Chemical stability during accelerated stress condition” value in series [6] is given as “limited chemical stability”.

For the compound `NS(=O)(=O)OC[C@@H]1C[C@@H](n2ccc3c(N[C@H]4CCc5ccccc54)ncnc32)C[C@@H]1O` [Form M, ((1S,2S,4R)-4-{4-[(1S)-2,3-dihydro-1H-inden-1-ylamino]-7H-pyrrolo[2,3-d]pyrimidin-7-yl}-2-hydroxycyclopentyl)methyl sulfamate], in series [2] (setting [9]), the “Purity after 60° C./75% RH, 2 weeks” value was 99.0%. In addition, the “Chemical stability … (in words)” value in series [2] (listed as malonic acid) is given as “highest final purity”; in series [2] (listed as malonic acid cocrystal), “little decomposition; also recorded: improvement in stability over the current MLN4924 HCl form”. Further, the “Purity after 60° C./ambient RH, 2 weeks” value in series [2] (setting [9]) turned out to be 99.1%. Also, the “Purity T = 0” value was 99.0% in series [2] (setting [9]) and “highest initial purity” in series [2] (listed as malonic acid). Also, in series [3] (thermodynamic from solid), the solubility was below 1000 µg/mL. The “Observations After Stress” value is given as “Free flowing solids” in series [1] (~75% RH stress, ~4 days) and “Free flowing solids” in series [1] (~97% RH stress, ~1 day).
